Reference: paper PMC10689823, “Discovery of a Drug-like, Natural Product-Inspired DCAF11 Ligand Chemotype” (Nature Communications, 2023)
Several values for one entry are separate records, joined by “and”; a condition that tells them apart may be missing. Equal values may be shown once.

Tests used:
Assay type in all cases: cell-based
[1] = Cell viability assay (CellTiter-Glo) in Jurkat cells; settings: human, Jurkat cells
Procedure: (§1) Jurkat cells (3 × 10^3) and Hep G2 cells (3.5 × 10^3) were seeded in 96-well plates in 100 μL culture medium. Cells were treated with compounds dissolved in 50 μl medium at the indicated concentration for 72 h, at the same time, one plate of cells without compounds treatment was used for the cell count at time zero. After adding 40 μl of CellTiter-Glo® reagent (Promega, G7571) to each well for 10 min at room temperature, the luminescence was measured on a Spark® Multimode Microplate Reader (Tecan). The data was analyzed by the GraphPad Prism 9.0.

Jurkat cells = assay: as above; settings: for Relative cell viability (%): Fig. 4k; for Cell viability (%) relative to DMSO: individual replicates, Supplementary Fig. 7g
Procedure: as §1

Hep G2 cells = assay: Cell viability assay (CellTiter-Glo) in Hep G2 cells; settings: Homo sapiens, HepG2, 72 h
Procedure: as §1

BRD2 = BRD2 (Homo sapiens, UniProt P25440); assay: BRD2 levels by Western blot in Hep G2 and MDA-MB-231 cells (incl. RNA interference); design: endogenous in cells; host or cells: Hep G2; MDA-MB-231; settings: Hep G2 cells; 30 μM 15 for 1 h, then 10 μM 9 for 4 h
Procedure: Cells were washed with PBS and lysed in lysis buffer (50 mM Tris-HCl, pH 7.4, 150 mM NaCl, 1% Triton X-100, 1% sodium deoxycholate, 0.1% SDS) with complete protease inhibitor cocktail (Roche, 11836170001) for 30 min on ice. For Ramos cells, cell pellets were lysed in lysis buffer (50 mM Tris-HCl, pH 8, 150 mM NaCl, 1% NP-40, 0.5% sodium deoxycholate) with complete protease inhibitor cocktail. After centrifugation at 16,000 x g, the supernatant was transferred into a new tube and the protein concentration was determined by DC protein assay (BIO-RAD, 5000116). Proteins were separated by SDS-PAGE and transferred to a PVDF membrane (Thermo scientific, 0.45 μm, 88518). For PDEδ, BRD2, GAPDH, BRD4, Vinculin and BTK, the membranes were blocked with Intercept® Blocking Buffer (LI-COR Biosciences, 927-70001) at room temperature for 1 h. The primary antibodies for these proteins were diluted with Intercept® Blocking Buffer (1:500 for PDEδ, 1:3000 for Vinculin, and 1:1000 for other proteins) and incubated with the membranes overnight at 4 °C. Membranes were washed with PBS + 0.1% Tween 20 (PBS-T) five times and incubated with secondary antibodies conjugated to IRDye® Infrared Fluorescent Dyes (1:5000, LI-COR Biosciences) at room temperature for 1 h with protection from light. After washing the membrane, signals were visualized using the ChemiDoc MP Imaging System (BIO-RAD Laboratories). For detection of LC3B, BRD3, BLK, DCAF11, DDB1 RBX1, FIP200, V5- and FLAG-Tag the membranes were blocked with 5% milk in PBS-T at room temperature for 1 h. The primary antibodies for these proteins were diluted in 5% milk in PBS-T buffer (1:200 for BRD3, 1:1000 for other proteins) and incubated with the membranes overnight at 4 °C. Membranes were washed with PBS-T five times and incubated with HRP secondary antibodies (1:1500) at room temperature for 1 h. After washing the membrane, protein detection was performed using Western blotting detection reagent (Thermo Scientific, 34095) and the ChemiDoc MP Imaging System (BIO-RAD). Relative band intensities were quantified using Image Lab (BIO-RAD).

Sequence of BRD2 (P25440 whole entry): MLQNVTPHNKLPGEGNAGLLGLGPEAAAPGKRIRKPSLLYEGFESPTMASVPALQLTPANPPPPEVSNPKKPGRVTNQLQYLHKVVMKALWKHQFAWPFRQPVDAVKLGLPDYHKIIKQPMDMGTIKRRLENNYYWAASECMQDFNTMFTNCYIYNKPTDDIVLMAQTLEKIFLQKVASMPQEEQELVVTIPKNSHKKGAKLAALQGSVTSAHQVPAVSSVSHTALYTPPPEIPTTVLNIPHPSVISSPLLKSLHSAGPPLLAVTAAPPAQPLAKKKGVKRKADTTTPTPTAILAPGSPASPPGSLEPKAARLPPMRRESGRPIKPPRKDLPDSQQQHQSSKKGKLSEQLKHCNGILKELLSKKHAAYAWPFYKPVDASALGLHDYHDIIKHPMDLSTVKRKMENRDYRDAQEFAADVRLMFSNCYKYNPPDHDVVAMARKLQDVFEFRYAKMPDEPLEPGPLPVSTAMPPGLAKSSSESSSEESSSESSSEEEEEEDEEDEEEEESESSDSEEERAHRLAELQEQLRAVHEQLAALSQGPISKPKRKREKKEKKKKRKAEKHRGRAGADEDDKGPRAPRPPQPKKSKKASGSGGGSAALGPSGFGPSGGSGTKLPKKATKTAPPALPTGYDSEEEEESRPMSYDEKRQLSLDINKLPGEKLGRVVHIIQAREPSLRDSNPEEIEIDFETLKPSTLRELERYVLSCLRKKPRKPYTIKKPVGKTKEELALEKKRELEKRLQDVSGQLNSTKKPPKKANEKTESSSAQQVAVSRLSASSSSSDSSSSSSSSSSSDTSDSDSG

COCCCN(C(=O)CCl)C(C(=O)NCc1ccccc1)c1ccc(Cl)c(Cl)c1 (centres unmarked) [Compound 15, reference compound]
viability at 72 h, 10 nmol/L ([1]; concentration 10 nmol/L, individual replicates, Supplementary Fig. 7g, read-out: Cell viability (%) relative to DMSO): 90.9%
viability at 72 h, 30 nmol/L ([1]; concentration 30 nmol/L, individual replicates, Supplementary Fig. 7g, read-out: Cell viability (%) relative to DMSO): 89%
viability at 72 h, 0.01 µM ([1]; 72 h, 10 nM, Fig. 4k, read-out: Relative cell viability (%)): 98.2%
viability at 72 h, 0.03 µM ([1]; 72 h, 30 nM, Fig. 4k, read-out: Relative cell viability (%)): 95.3%
viability at 72 h, 0.1 µM ([1]; 72 h, 100 nM, Fig. 4k, read-out: Relative cell viability (%)): 97.5%
viability at 72 h, 0.3 µM ([1]; 72 h, 300 nM, Fig. 4k, read-out: Relative cell viability (%)): 89.8%
viability at 72 h, 1 µM ([1]; 72 h, 1000 nM, Fig. 4k, read-out: Relative cell viability (%)): 69.4%
GI50 (Jurkat cells; Homo sapiens, Jurkat cells, 72 h): 1.7 ± 0.2 µM
Relative cell viability (%) (Jurkat cells; Jurkat cells, 72 h, 10 nM, 0.01 µM): 107.976% and 98.062%
Relative cell viability (%) (Jurkat cells; Jurkat cells, 72 h, 30 nM, 0.03 µM): 111.548% and 108.416%
Relative cell viability (%) (Jurkat cells; Jurkat cells, 72 h, 100 nM, 0.1 µM): 104.746% and 97.0657%
Relative cell viability (%) (Jurkat cells; Jurkat cells, 72 h, 300 nM, 0.3 µM): 101.886% and 95.5624%
Relative cell viability (%) (Jurkat cells; Jurkat cells, 72 h, 1000 nM, 1 µM): 76.2485% and 79.6366%
Relative cell viability (%) (Jurkat cells; Jurkat cells, 72 h, 3000 nM, 3 µM): -0.04609% and 0.01061% and 0.06492%
Relative cell viability (%) (Jurkat cells; Jurkat cells, 72 h, 10000 nM, 10 µM): -0.2034% and -0.1473% and -0.1406%
Relative cell viability (%) (Jurkat cells; Jurkat cells, 72 h, 30000 nM, 30 µM): -0.2515% and -0.2135% and -0.2133%
Cell viability (%) relative to DMSO (Jurkat cells; concentration 10 nmol/L): 93.1923% and 103.02%
Cell viability (%) relative to DMSO (Jurkat cells; concentration 30 nmol/L): 89.995% and 103.027%
Cell viability (%) relative to DMSO (Jurkat cells; concentration 100 nmol/L): 81.9055% and 90.259% and 101.913%
Cell viability (%) relative to DMSO (Jurkat cells; concentration 300 nmol/L): 82.6491% and 87.803% and 104.249%
Cell viability (%) relative to DMSO (Jurkat cells; concentration 1000 nmol/L): 80.0935% and 85.5797% and 108.086%
Cell viability (%) relative to DMSO (Jurkat cells; concentration 3000 nmol/L): 49.5057% and 68.1876% and 85.0918%
Cell viability (%) relative to DMSO (Jurkat cells; concentration 10000 nmol/L): 0.002496% and -0.07521% and -0.05875%
Cell viability (%) relative to DMSO (Jurkat cells; concentration 30000 nmol/L): -0.1172% and -0.221% and -0.2298%
GI50 (Hep G2 cells): 6.5 ± 1.8 µM
effect of pretreatment on BRD2 degradation by 9 (BRD2): impaired the degradation of BRD2
